According to patent EP0643971A2, “Antifungal compositions consisting of an antifungal agent, e.g. antibiotic R-106I, and a fungal MDR inhibitor” (priority 1993, dated 1995):

System: Penicillium chrysogenum
Assay: Potentiation of hygromycin B toxicity by trifluoroperazine, growth of regenerating protoplasts on agar
Type: cell-based
Parameters: key to Growth: +: growth of the Penicillium chrysogenum cells, and therefore, that the toxic effect of hygromycin B was not potentiated by TFP; -: no growth of the Penicillium chrysogenum culture, and therefore, that the toxic effect of hygromycin B was potentiated by trifluoroperazine
Conditions: for Growth: 28°C, 48 hours
Excerpt: Protoplasts of Penicillium chrysogenum (Eli Lilly and Co.) were formed with Novozyme 234 in substantial accordance with the procedure described for Cephalosporium acremonium by Queener et al., 1985 Microbiology 1985, American Society for Microbiology, pp 468-472, and by Skatrud et al., 1987, Current Genetics, 12:337-348. During formation of the P. chrysogenum, protoplasts and subsequent cell wall regeneration, sucrose was used as an osmotic stabilizer rather than sodium chloride as described in the above references. Petri plates were prepared that contained an agar layer consisting of: yeast nitrogen base without amino acids and ammonium sulfate (1.7 g/L) (Difco Laboratories, Detroit, MI); ammonium sulfate (5 g/L); and sucrose (125 g/L); trifluoroperazine (final concentration […]; Sigma Chemical Co. Catalog #T-8516); and cadmium chloride (final concentration 3 mM/ml). Approximately 3 X 10⁷ Penicillium chrysogenum protoplasts were delivered to the surface of the solidified agar in a 4 ml soft agar overlay consisting of the following ingredients: yeast nitrogen base without amino acids and ammonium sulfate (1.7 g/L) (Difco Laboratories, Detroit, MI); ammonium sulfate (5 g/L); sucrose (125 g/L); and agar (4 g/L). The plates were incubated overnight at 15°C.
The next morning hygromycin B (final concentration […]; Boehringer Mannheim Catalog #843 555) was added to the plates in a 4 ml soft agar overlay consisting of yeast nitrogen base without amino acids and ammonium sulfate (1.7 g/L) (Difco Laboratories, Detroit, MI); ammonium sulfate (5 g/L); sucrose (125 g/L); and agar (4 g/L). The plates were incubated at 28°C for 48 hours.
In Table 2, a result of "+" indicates growth of the Penicillium chrysogenum cells, and therefore, that the toxic effect of hygromycin B was not potentiated by TFP. A result of "-" indicates no growth of the Penicillium chrysogenum culture, and therefore, that the toxic effect of hygromycin B was potentiated by trifluoroperazine.

Row | SMILES | Growth (Hygromycin B 0.250 mg/ml, TFP 250 µM) | Growth (Hygromycin B 1 mg/ml, TFP 500 µM) | Growth (Hygromycin B 2 mg/ml, TFP 500 µM) | Growth (Hygromycin B 3 mg/ml, TFP 500 µM) | Growth (Hygromycin B 4 mg/ml, TFP 500 µM) | Growth (Hygromycin B 5 mg/ml, TFP 0 µM) | Growth (Hygromycin B 5 mg/ml, TFP 500 µM) | Growth (Hygromycin B 0 mg/ml, TFP 500 µM) | toxic effect of hygromycin B on Penicillium chrysogenum (in the presence of triflouroperazine, summary of Table 2)
1 | CN[C@H]1C[C@@H](N)[C@H](O)[C@@H](O[C@@H]2O[C@H](CO)[C@H](O)[C@@H]3OC4(O[C@H]23)O[C@H]([C@@H](N)CO)[C@H](O)[C@H](O)[C@H]4O)[C@@H]1O (stereo partly drawn) [Hygromycin B, hygromycin B] | - | - | - | - | - | + | - |  | 
2 | CN1CCN(CCCN2c3ccccc3Sc3ccc(C(F)(F)F)cc32)CC1 [TFP, trifluoroperazine] |  |  |  |  |  |  |  | + | potentiated
